Source: US11447471B2, “α,β-unsaturated amide compound” (KYOWA KIRIN CO., LTD., priority 2017, dated 2022)

Test system: OVTOKO cells
Assay: Cell growth inhibitory effect on human ovarian cancer cell line (cell counting kit 8, 6 days)
Format: cell-based
Details: 144 h, 6 days incubation
Source text: NCI-H226 cells, a human mesothelioma cell line (ATCC, CRL-5826), NCI-H322 cells, a human lung cancer cell line (the European Collection of Authenticated Cell Cultures, 95111734), OUTOKO cells, a human ovarian cancer cell line (JCRB cell bank, KRB1048) and […] were each subcultured by keeping the cell density under 80% in a RPMI1640 culture medium with 10% fetal bovine serum (FBS). NCI-H226 cells, NCI-H322 cells and SSP-25 cells were each suspended in the RPMI1640 culture medium mentioned above, and plated to a 96-well flat-bottom plate at 500 cells/well in each well, and incubated at 37° C. in an incubator with 5% CO2 for one day. After the incubation, the evaluation of cell growth inhibitory activity was started. OVTOKO cells were suspended in the RPMI1640 culture medium mentioned above, and plated to a 96-well flat-bottom plate at 250 cells/well in each well, and incubated it at 37° C. in an incubator with 5% CO2 for one day. After the incubation, the evaluation of the cell growth inhibitory activity was started. The next day, a test compound was serially diluted to 5 times of its final concentration in the RPM11640 culture medium mentioned above, and the diluted solution was added to each well. In this case, the final concentration of DMSO in each well was adjusted to 0.1%. After the test compound was added, cells were incubated at 37° C. in an incubator with 5% CO2 for 6 days. At the addition of the test compound and 6 days after the addition, the cell counting measurement was performed using a cell counting kit 8 (made by DOJINDO) according to a protocol equivalent to DOJINDO's recommendation. A reagent contained in the kit was added to each plate and color reaction was performed for 2 or 3 hours at 37° C. in an incubator with 5% CO2. After the reaction, an absorbance at wavelength of 450 nm was measured using a microplate reader. A growth inhibition rate was calculated according to the following formula, from which the concentration of a test compound at which cell growth was inhibited by 50% (GI50 value) was determined.

GI50	Structure (SMILES)
≤ 3000 nM	C=CC(=O)NCc1ccc(Sc2ccc(C(F)(F)F)cc2)c2ncccc12 [Compound 202, N-{(8-[{4-(Trifluoromethyl)phenyl}thio]quinolin-5-yl)methyl}acrylamide]
≤ 3000 nM	C=CC(=O)NCc1ccc(Oc2ccc(C(F)(F)F)cc2)c2ncc(C)cc12 [Compound 199, N-([3-Methyl-8-{4-(trifluoromethyl)phenoxy}quinolin-5-yl]methyl)acrylamide]
≤ 3000 nM	C=CC(=O)NCc1cnc(Oc2ccc(Cl)cc2)c2ncccc12 [Compound 227, N-[{8-(4-Chlorophenoxy)-1,7-naphthyridin-5-yl}methyl]acrylamide]
≤ 3000 nM	[H]/C=C/C(=O)NCc1ccc(Oc2ccc(C(F)(F)F)nc2)c2ncccc12 [Compound 143, N-{(8-[{6-(Trifluoromethyl)pyridin-3-yl}oxy]quinolin-5-yl)methyl}acrylamide]
≤ 3000 nM	C=CC(=O)NC1COc2c(cccc2Oc2ccc(C(F)(F)F)nc2)C1 (stereo not shown) [Compound 229, N-(8-[{6-(Trifluoromethyl)pyridin-3-yl}oxy]chroman-3-yl)acrylamide]
≤ 3000 nM	C=CC(=O)NCc1ccc(C(=O)c2ccc(C(F)(F)F)cc2)c2ncccc12 [Compound 208, N-([8-{4-(Trifluoromethyl)benzoyl}quinolin-5-yl]methyl)acrylamide]
≤ 3000 nM	[H]/C=C/C(=O)NCc1ccc(Oc2ccc(Cl)cc2)c2ncccc12 [Compound 134, N-[{8-(4-Chlorophenoxy)quinolin-5-yl}methyl]acrylamide]
≤ 3000 nM	C=CC(=O)NCc1ccc(Oc2ccc(C(F)(F)F)nc2)c2ncc(C)cc12 [Compound 200, N-{(3-Methyl-8-[{6-(trifluoromethyl)pyridin-3-yl}oxy]quinolin-5-yl)methyl}acrylamide]
≤ 3000 nM	C=CC(=O)NCc1cnc(Oc2ccc(C(F)(F)F)cc2)c2ccccc12 [Compound 222, N-([1-{4-(Trifluoromethyl)phenoxy}isoquinolin-4-yl]methyl)acrylamide]
≤ 3000 nM	[H]/C=C/C(=O)NCc1cc(Oc2ccnc(C(F)(F)F)c2)nc2ccccc12 [Compound 151, N-{(2-[{2-(Trifluoromethyl)pyridin-4-yl}oxy]quinolin-4-yl)methyl}acrylamide]
≤ 3000 nM	[H]/C=C/C(=O)NC1CCOc2c1ccc(Oc1ccc(C(F)(F)F)cc1)c2C (stereo not shown) [Compound 28, N-[8-Methyl-7-{4-(trifluoromethyl)phenoxy}chroman-4-yl]acrylamide]
≤ 3000 nM	C=CC(=O)Nc1ccc(Oc2ccccc2)c2nc(C)ccc12 [Compound 112, N-(2-Methyl-8-phenoxyquinolin-5-yl)acrylamide]
≤ 3000 nM	C=CC(=O)NC1COc2cc(Oc3ccc(Cl)cc3)ccc2C1 (stereo not shown) [Compound 37, N-{7-(4-Chlorophenoxy)chroman-3-yl}acrylamide]
≤ 3000 nM	C=CC(=O)N[C@@H]1CC[C@H](Oc2ccc(C(F)(F)F)cc2)c2ncc(Cl)cc21 (relative stereo) [Compound 190, N-((5R*,8S*)-3-Chloro-8-(4-(trifluoromethyl)phenoxy)-5,6,7,8-tetrahydroquinolin-5-yl)acrylamide]
≤ 3000 nM	[H]/C=C/C(=O)NC1CCOc2c1ccc(Oc1ccc(Cl)cc1)c2C (stereo not shown) [Compound 27, N-{7-(4-Chlorophenoxy)-8-methylchroman-4-yl}acrylamide]
≤ 3000 nM	C=CC(=O)NC1COc2c(Oc3ccc(C(F)(F)F)cc3)cccc2C1=O (racemic) [Compound 40, N-[4-Oxo-8-{4-(trifluoromethyl)phenoxy}chroman-3-yl]acrylamide]
≤ 3000 nM	C=CC(=O)NCc1ccc(Oc2ccc(C(F)(F)F)cc2)c2cnccc12 [Compound 223, N-([8-{4-(Trifluoromethy)phenoxy}isoquinolin-5-yl]methyl)acrylamide]
≤ 3000 nM	C=CC(=O)Nc1cncc(Oc2ccc(Cl)c(Cl)c2)c1 [Compound 105, N-{5-(3,4-Dichlorophenoxy)pyridin-3-yl}acrylamide]
≤ 3000 nM	C=CC(=O)Nc1ccc(Oc2ccccc2)c2ncccc12 [Compound 111, N-(8-Phenoxyquinolin-5-yl)acrylamide]

GI50	Structure (SMILES)
≤ 3000 nM	C=CC(=O)NCc1ccc(Cc2ccc(C(F)(F)F)cc2)c2ncccc12 [Compound 211, N-([8-{4-(Trifluoromethyl)benzyl}quinolin-5-yl]methyl)acrylamide]
≤ 3000 nM	C=CC(=O)NC1COc2cccc(Oc3ccc(C(F)(F)F)cc3)c2C1 (stereo not shown) [Compound 35, N-[5-{4-(Trifluoromethyl)phenoxy}chroman-3-yl]acrylamide]
≤ 3000 nM	C=CC(=O)NC1CCOc2c1ccc(Oc1ccc(F)c(F)c1)c2OC (stereo not shown) [Compound 164, N-{7-(3,4-Difluorophenoxy)-8-methoxychroman-4-yl}acrylamide]
≤ 3000 nM	C=CC(=O)NC1COc2c(cccc2Oc2ccc(C(F)(F)F)cc2)C1 (stereo not shown) [Compound 61, N-[8-{4-(Trifluoromethyl)phenoxy}chroman-3-yl]acrylamide]
≤ 3000 nM	C=CC(=O)Nc1cnc(Oc2ccc(Cl)cc2)c2ncccc12 [Compound 226, N-{8-(4-chlorophenoxy)-1,7-naphthyridin-5-yl}acrylamide]
≤ 3000 nM	C=CC(=O)NCc1ncc(Oc2ccc(C(F)(F)F)cc2)c2ccccc12 [Compound 224, N-([4-{4-(Trifluorophenyl)phenoxy}isoquinolin-1-yl]methyl)acrylamide]
≤ 3000 nM	[H]/C=C/C(=O)NC1CCOc2c1ccc(Oc1ccc(Cl)cc1)c2OC (stereo not shown) [Compound 32, N-{7-(4-Chlorophenoxy)-8-methoxychroman-4-yl}acrylamide]
≤ 3000 nM	C=CC(=O)N[C@@H]1c2ccc(Oc3ccc(C(F)(F)F)cc3)cc2OC[C@@H]1F (relative stereo) [Compound 21, cis-N-[3-Fluoro-7-{4-(trifluoromethyl)phenoxy}chroman-4-yl]acrylamide]
≤ 3000 nM	C=CC(=O)Nc1cncc(Oc2ccc(C(F)(F)F)c(F)c2)c1 [Compound 106, N-[5-{3-Fluoro-4-(trifluoromethyl)phenoxy}pyridin-3-yl]acrylamide]
≤ 3000 nM	[H]/C=C/C(=O)NCc1ccc(Oc2ccc(C(F)(F)F)cc2)c2ncccc12 [Compound 138, N-([8-{4-(Trifluoromethyl)phenoxy}quinolin-5-yl]methyl)acrylamide]
≤ 3000 nM	C=CC(=O)N[C@H]1CC[C@@H](Oc2ccc(C(F)(F)F)cc2)c2nc(Cl)ccc21 (relative stereo) [Compound 241, cis-N-[2-Chloro-8-{4-(trifluoromethyl)phenoxy}-5,6,7,8-tetrahydroquinolin-5-yl]acrylamide]
≤ 3000 nM	C=CC(=O)NC1CCOc2c1ccc(Oc1ccc(C(F)(F)F)nc1)c2Br (stereo not shown) [Compound 169, N-(8-Bromo-7-[{6-(trifluoromethyl)pyridin-3-yl}oxy]chroman-4-yl)acrylamide]
≤ 3000 nM	C=CC(=O)N[C@@H]1c2ccc(Oc3ccc(C(F)(F)F)cc3)cc2OC[C@H]1F (relative stereo) [Compound 22, trans-N-[3-Fluoro-7-{4-(trifluoromethyl)phenoxy}chroman-4-yl]acrylamide]
≤ 3000 nM	C=CC(=O)NCc1ccc(C(O)c2ccc(C(F)(F)F)cc2)c2ncccc12 (stereo not shown) [Compound 206, N-{(8-[Hydroxy{4-(trifluoromethyl)phenyl}methyl]quinolin-5-yl)methyl}acrylamide]
≤ 3000 nM	C=CC(=O)NC1CCOc2c1ccc(Oc1ccc(C(F)(F)F)nc1)c2Cl (stereo not shown) [Compound 168, N-(8-Chloro-7-[{6-(trifluoromethyl)pyridin-3-yl}oxy]chroman-4-yl)acrylamide]
≤ 3000 nM	C=CC(=O)NCc1ccc(Oc2ccc(C(F)(F)F)nc2)c2cccnc12 [Compound 219, N-{(5-[{6-(Trifluoromethyl)pyridin-3-yl}oxy]quinolin-8-yl)methyl}acrylamide]
≤ 3000 nM	C=CC(=O)Nc1ccc(Oc2cccc(Cl)c2)c2ncccc12 [Compound 114, N-{8-(3-Chlorophenoxy)quinolin-5-yl}acrylamide]
≤ 3000 nM	C=CC(=O)Nc1cncc(Oc2cncc(C(F)(F)F)c2)c1 [Compound 107, N-(5-[{5-(Trifluoromethyl)pyridin-3-yl}oxy]pyridin-3-yl)acrylamide]
≤ 3000 nM	C=CC(=O)NCc1ccc(Nc2ccc(C(F)(F)F)cc2)c2ncccc12 [Compound 203, N-{(8-[{4-(Trifluoromethyl)phenyl}amino]quinolin-5-yl)methyl}acrylamide]

Structure (SMILES)	GI50
C=CC(=O)NC1COc2c(cc(C(F)(F)F)cc2Oc2ccc(C(F)(F)F)nc2)C1 (stereo not shown) [Compound 162, N-{6-(Trifluoromethyl)-8-[{6-(trifluoromethyl)pyridin-3-yl}oxy]chroman-3-yl}acrylamide]	≤ 3000 nM
C=CC(=O)NC1COc2c(cccc2Oc2cnc(C(F)(F)F)nc2)C1 (stereo not shown) [Compound 155, N-(8-[{2-(Trifluoromethyl)pyrimidin-5-yl}oxy]chroman-3-yl)acrylamide]	≤ 3000 nM
